Assay results as given in US12077503B2, “Substituted cyclic amides and their use as herbicides” (FMC CORPORATION, priority 2015, dated 2024).

Experiments:
Assay type in all cases: in vivo
[1] = test system: barnyardgrass (Echinochloa crus-galli); experiment: Test G Pre-Emergence Protocol; conditions: Echinochloa crus-galli, pre-emergence, 312 h, evaluated after 13 days; for pest or weed control at 15.625 g/ha: 15.625 g ai/ha, read-out: Barnyard grass damage rating (100=total damage to plant; 0=no damage to plant); for pest or weed control at 62.5 g/ha: 62.5 g ai/ha, 100=total damage to plant, 0=no damage to plant, read-out: plant damage rating, Barnyardgrass; for pest or weed control at 250 g/ha: 250 g ai/ha, read-out: Barnyardgrass damage rating (100=total damage to plant; 0=no damage to plant)
Outline: (§1)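 One day after sowing, pots are treated with a spray of test compound formulated in acetone/water 50:50 plus 0.5% Tween 20, giving 15.625, 62.5 or 250 g/ha. Evaluation on a 0–100 damage scale follows 13 days of glasshouse growth.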

corn (Zea mays) [2] = experiment: Test G Pre-Emergence Protocol; conditions: Zea mays, pre-emergence, 312 h, evaluated after 13 days; for plant injury at 15.625 g/ha: 15.625 g ai/ha; for plant injury at 15.625 g/ha / plant injury at 250 g/ha: read-out: Corn damage rating (100=total damage to plant; 0=no damage to plant); for plant injury at 62.5 g/ha: 62.5 g ai/ha, 100=total damage to plant, 0=no damage to plant, read-out: plant damage rating, Corn; for plant injury at 250 g/ha: 250 g ai/ha
Outline: as §1

[3] = test system: velvetleaf (Abutilon theophrasti); experiment: Test G Pre-Emergence Protocol; conditions: Abutilon theophrasti, pre-emergence, 312 h, evaluated after 13 days; for pest or weed control at 15.625 g/ha: 15.625 g ai/ha; for pest or weed control at 15.625 g/ha / pest or weed control at 250 g/ha: read-out: Velvetleaf damage rating (100=total damage to plant; 0=no damage to plant); for pest or weed control at 62.5 g/ha: 62.5 g ai/ha, 100=total damage to plant, 0=no damage to plant, read-out: plant damage rating, Velvetleaf; for pest or weed control at 250 g/ha: 250 g ai/ha
Outline: as §1

[4] = test system: ivy-leaved morning glory (Ipomoea hederacea); experiment: Test G Pre-Emergence Protocol; conditions: Ipomoea, pre-emergence, 312 h, evaluated after 13 days; for pest or weed control at 15.625 g/ha: 15.625 g ai/ha, read-out: Morning-glory, Ivy-leaved damage rating (100=total damage to plant; 0=no damage to plant); for pest or weed control at 62.5 g/ha: 62.5 g ai/ha, 100=total damage to plant, 0=no damage to plant, read-out: plant damage rating, Morningglory, Ivy-leaved; for pest or weed control at 250 g/ha: 250 g ai/ha, read-out: Morningglory, Ivy-leaved damage rating (100=total damage to plant; 0=no damage to plant)
Outline: as §1

[5] = test system: giant foxtail (Setaria faberi); experiment: Test G Pre-Emergence Protocol; conditions: Setaria faberi, pre-emergence, 312 h, evaluated after 13 days; for pest or weed control at 15.625 g/ha: 15.625 g ai/ha; for pest or weed control at 15.625 g/ha / pest or weed control at 250 g/ha: read-out: Foxtail, Giant damage rating (100=total damage to plant; 0=no damage to plant); for pest or weed control at 62.5 g/ha: 62.5 g ai/ha, 100=total damage to plant, 0=no damage to plant, read-out: plant damage rating, Foxtail, Giant; for pest or weed control at 250 g/ha: 250 g ai/ha
Outline: as §1

[6] = test system: redroot pigweed (Amaranthus retroflexus); experiment: Test G Pre-Emergence Protocol; conditions: Amaranthus retroflexus, pre-emergence, 312 h, evaluated after 13 days; for pest or weed control at 15.625 g/ha: 15.625 g ai/ha; for pest or weed control at 15.625 g/ha / pest or weed control at 250 g/ha: read-out: Pigweed, Redroot damage rating (100=total damage to plant; 0=no damage to plant); for pest or weed control at 62.5 g/ha: 62.5 g ai/ha, 100=total damage to plant, 0=no damage to plant, read-out: plant damage rating, Pigweed, Redroot; for pest or weed control at 250 g/ha: 250 g ai/ha
Outline: as §1

[7] = test system: barnyardgrass (Echinochloa crus-galli); experiment: Test G Post-Emergence Protocol; conditions: Echinochloa crus-galli, post-emergence, 312 h; for pest or weed control at 15.625 g/ha: 15.625 g ai/ha, evaluated after 13 days (100=total damage to plant; 0=no damage to plant), read-out: Barnyardgrass damage rating; for pest or weed control at 62.5 g/ha: 62.5 g ai/ha, read-out: Barnyardgrass damage rating (100=total damage to plant; 0=no damage to plant); for pest or weed control at 62.5 g/ha / pest or weed control at 250 g/ha: evaluated after 13 days; for pest or weed control at 250 g/ha: 250 g ai/ha, read-out: damage to plant, Barnyardgrass (100=total damage to plant; 0=no damage to plant)
Outline: (§2)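 Seedlings grown 8 days in soil in a glasshouse (24/16 °C day/night, 14 h light, 65% humidity) were sprayed post-emergence with compound in acetone/water 50:50 plus 0.5% Tween 20 at 15.625, 62.5 or 250 g/ha. Damage was scored after 13 days on a 0–100 scale (100 = total damage).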

corn (Zea mays) [8] = experiment: Test G Post-Emergence Protocol; conditions: Zea mays, post-emergence, 312 h; for plant injury at 15.625 g/ha: 15.625 g ai/ha, evaluated after 13 days (100=total damage to plant; 0=no damage to plant), read-out: Corn damage rating; for plant injury at 62.5 g/ha: 62.5 g ai/ha, read-out: Corn damage rating (100=total damage to plant; 0=no damage to plant); for plant injury at 62.5 g/ha / plant injury at 250 g/ha: evaluated after 13 days; for plant injury at 250 g/ha: 250 g ai/ha, read-out: damage to plant, Corn (100=total damage to plant; 0=no damage to plant)
Outline: as §2

[9] = test system: velvetleaf (Abutilon theophrasti); experiment: Test G Post-Emergence Protocol; conditions: Abutilon theophrasti, post-emergence, 312 h; for pest or weed control at 15.625 g/ha: 15.625 g ai/ha, evaluated after 13 days (100=total damage to plant; 0=no damage to plant), read-out: Velvetleaf damage rating; for pest or weed control at 62.5 g/ha: 62.5 g ai/ha, read-out: Velvetleaf damage rating (100=total damage to plant; 0=no damage to plant); for pest or weed control at 62.5 g/ha / pest or weed control at 250 g/ha: evaluated after 13 days; for pest or weed control at 250 g/ha: 250 g ai/ha, read-out: damage to plant, Velvetleaf (100=total damage to plant; 0=no damage to plant)
Outline: as §2

[10] = test system: ivy-leaved morning glory (Ipomoea hederacea); experiment: Test G Post-Emergence Protocol; conditions: Ipomoea, post-emergence, 312 h; for pest or weed control at 15.625 g/ha: 15.625 g ai/ha, evaluated after 13 days (100=total damage to plant; 0=no damage to plant), read-out: Morningglory, Ivy-leaved damage rating; for pest or weed control at 62.5 g/ha: 62.5 g ai/ha, read-out: Morningglory, Ivy-leaved damage rating (100=total damage to plant; 0=no damage to plant); for pest or weed control at 62.5 g/ha / pest or weed control at 250 g/ha: evaluated after 13 days; for pest or weed control at 250 g/ha: 250 g ai/ha, read-out: damage to plant, Morningglory, Ivy-leaved (100=total damage to plant; 0=no damage to plant)
Outline: as §2

[11] = test system: giant foxtail (Setaria faberi); experiment: Test G Post-Emergence Protocol; conditions: Setaria faberi, post-emergence, 312 h; for pest or weed control at 15.625 g/ha: 15.625 g ai/ha, evaluated after 13 days (100=total damage to plant; 0=no damage to plant), read-out: Foxtail, Giant damage rating; for pest or weed control at 62.5 g/ha: 62.5 g ai/ha, read-out: Foxtail, Giant damage rating (100=total damage to plant; 0=no damage to plant); for pest or weed control at 62.5 g/ha / pest or weed control at 250 g/ha: evaluated after 13 days; for pest or weed control at 250 g/ha: 250 g ai/ha, read-out: damage to plant, Foxtail, Giant (100=total damage to plant; 0=no damage to plant)
Outline: as §2

[12] = test system: redroot pigweed (Amaranthus retroflexus); experiment: Test G Post-Emergence Protocol; conditions: Amaranthus retroflexus, post-emergence, 312 h; for pest or weed control at 15.625 g/ha: 15.625 g ai/ha, evaluated after 13 days (100=total damage to plant; 0=no damage to plant), read-out: Pigweed, Redroot damage rating; for pest or weed control at 62.5 g/ha: 62.5 g ai/ha, read-out: Pigweed, Redroot damage rating (100=total damage to plant; 0=no damage to plant); for pest or weed control at 62.5 g/ha / pest or weed control at 250 g/ha: evaluated after 13 days; for pest or weed control at 250 g/ha: 250 g ai/ha, read-out: damage to plant, Pigweed, Redroot (100=total damage to plant; 0=no damage to plant)
Outline: as §2

CN1C[C@@H](c2ccc(C(F)(F)F)cc2)[C@H](C(=O)Nc2ccnc(F)c2)C1=O (racemic) [Compound 1529]
pest or weed control at 15.625 g/ha [1]: 0% | pest or weed control at 62.5 g/ha [1]: 0% | pest or weed control at 250 g/ha [1]: 0% | plant injury at 15.625 g/ha (corn (Zea mays) [2]): 0% | plant injury at 62.5 g/ha (corn (Zea mays) [2]): 0% | plant injury at 250 g/ha (corn (Zea mays) [2]): 0% | pest or weed control at 15.625 g/ha [3]: 0% | pest or weed control at 62.5 g/ha [3]: 0% | pest or weed control at 250 g/ha [3]: 0% | pest or weed control at 15.625 g/ha [4]: 0% | pest or weed control at 62.5 g/ha [4]: 0% | pest or weed control at 250 g/ha [4]: 0% | pest or weed control at 15.625 g/ha [5]: 0% | pest or weed control at 62.5 g/ha [5]: 0% | pest or weed control at 250 g/ha [5]: 0% | pest or weed control at 15.625 g/ha [6]: 0% | pest or weed control at 62.5 g/ha [6]: 0% | pest or weed control at 250 g/ha [6]: 0% | pest or weed control at 15.625 g/ha [7]: 0% | pest or weed control at 62.5 g/ha [7]: 0% | pest or weed control at 250 g/ha [7]: 0% | plant injury at 15.625 g/ha (corn (Zea mays) [8]): 0% | plant injury at 62.5 g/ha (corn (Zea mays) [8]): 0% | plant injury at 250 g/ha (corn (Zea mays) [8]): 0% | pest or weed control at 15.625 g/ha [9]: 0% | pest or weed control at 62.5 g/ha [9]: 0% | pest or weed control at 250 g/ha [9]: 0% | pest or weed control at 15.625 g/ha [10]: 0% | pest or weed control at 62.5 g/ha [10]: 0% | pest or weed control at 250 g/ha [10]: 0% | pest or weed control at 15.625 g/ha [11]: 0% | pest or weed control at 62.5 g/ha [11]: 0% | pest or weed control at 250 g/ha [11]: 0% | pest or weed control at 15.625 g/ha [12]: 0% | pest or weed control at 62.5 g/ha [12]: 0% | pest or weed control at 250 g/ha [12]: 0%

Cc1c(NC(=O)[C@H]2C(=O)N(C)C[C@@H]2c2ccc(C(F)(F)F)cc2)cccc1[N+](=O)[O-] (racemic) [Compound 1423]
pest or weed control at 15.625 g/ha [1]: 10% | pest or weed control at 62.5 g/ha [1]: 10% | pest or weed control at 250 g/ha [1]: 30% | plant injury at 15.625 g/ha (corn (Zea mays) [2]): 10% | plant injury at 62.5 g/ha (corn (Zea mays) [2]): 20% | plant injury at 250 g/ha (corn (Zea mays) [2]): 10% | pest or weed control at 15.625 g/ha [3]: 0% | pest or weed control at 62.5 g/ha [3]: 0% | pest or weed control at 250 g/ha [3]: 0% | pest or weed control at 15.625 g/ha [4]: 0% | pest or weed control at 62.5 g/ha [4]: 0% | pest or weed control at 250 g/ha [4]: 0% | pest or weed control at 15.625 g/ha [5]: 10% | pest or weed control at 62.5 g/ha [5]: 60% | pest or weed control at 250 g/ha [5]: 70% | pest or weed control at 15.625 g/ha [6]: 0% | pest or weed control at 62.5 g/ha [6]: 0% | pest or weed control at 250 g/ha [6]: 0% | pest or weed control at 15.625 g/ha [7]: 0% | pest or weed control at 62.5 g/ha [7]: 10% | pest or weed control at 250 g/ha [7]: 10% | plant injury at 15.625 g/ha (corn (Zea mays) [8]): 10% | plant injury at 62.5 g/ha (corn (Zea mays) [8]): 0% | plant injury at 250 g/ha (corn (Zea mays) [8]): 10% | pest or weed control at 15.625 g/ha [9]: 0% | pest or weed control at 62.5 g/ha [9]: 0% | pest or weed control at 250 g/ha [9]: 0% | pest or weed control at 15.625 g/ha [10]: 0% | pest or weed control at 62.5 g/ha [10]: 0% | pest or weed control at 250 g/ha [10]: 0% | pest or weed control at 15.625 g/ha [11]: 0% | pest or weed control at 62.5 g/ha [11]: 20% | pest or weed control at 250 g/ha [11]: 60% | pest or weed control at 15.625 g/ha [12]: 0% | pest or weed control at 62.5 g/ha [12]: 0% | pest or weed control at 250 g/ha [12]: 50%
